Drawing on US11820747B2, “PPARG inverse agonists and uses thereof” (Flare Therapeutics Inc., priority 2021, dated 2023), this text covers Emax, EC50 and inhibition for 15 compounds.

Test [1] concerns the target T1, PPARG/RXRA LBD heterodimer (Homo sapiens, UniProt P37231).
T1 construct: His-TEV-Q203-Y477: Uniprot ID P37231-2; made in house; host or cells: E. coli
Description: PPARγ-NCOR1 recruitment assay (TR-FRET, biotinylated NCOR1 ID2 peptide). It counts as binding. Conditions: for Emax: 3 h, maximal extent, T0070907 defined as 100%, DMSO 0%, read-out: % NCOR recruitment relative to T907; for EC50: TR-FRET, 80 nM Rosiglitazone, 3 hours incubation, read-out: PPARG-NCOR recruitment assay EC50. On the procedure: PPARγ-NCOR1 Recruitment Assay:
Compound potency (EC50) and maximal extent of NCOR1 recruitment to PPARG were assessed a TR-FRET binding assay measuring association of a biotinylated NCOR1 ID2 peptide (Biotin-[…]-amide) to PPARG/RXRA LBD heterodimer. Specifically, a 20 microliters of TR-FRET master mix consisting of 2 nM WT PPARG LBD (E. coli expressed, His-TEV-Q203-Y477: Uniprot ID P37231-2), 2 nM WT RXRA LBD or mutant S427F RXRA LBD (E. coli expressed, Flag-TEV-E228-T462; […]. Mixtures were incubated for 3 hours and read in an EnVision plate reader (Perkin Elmer) with […]. To determine the potency (EC50) and extent of NCOR1 recruitment, TR-FRET ratios were normalized to the average ratio of DMSO control wells (0%) and to the average maximum ratio for positive control compound (T0070907 (2-chloro-5-nitro-N-4-pyridinyl-benzamide); defined as 100%) in CDD Vault and analyzed using the Levenberg-Marquardt algorithm.
(In general: Time-resolved FRET reads energy transfer from a long-lived donor to a nearby acceptor.)
T1 sequence (O75376 2251-2273 partner, one chain of several): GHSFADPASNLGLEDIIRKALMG

Test [2] concerns the target T2, PPARG/RXRA LBD heterodimer (Homo sapiens, UniProt P37231).
T2 construct: His-TEV-Q203-Y477; Uniprot ID P37231-2; made in house; host or cells: E. coli
T2 sequence (P37231 203-477 isoform P37231-2): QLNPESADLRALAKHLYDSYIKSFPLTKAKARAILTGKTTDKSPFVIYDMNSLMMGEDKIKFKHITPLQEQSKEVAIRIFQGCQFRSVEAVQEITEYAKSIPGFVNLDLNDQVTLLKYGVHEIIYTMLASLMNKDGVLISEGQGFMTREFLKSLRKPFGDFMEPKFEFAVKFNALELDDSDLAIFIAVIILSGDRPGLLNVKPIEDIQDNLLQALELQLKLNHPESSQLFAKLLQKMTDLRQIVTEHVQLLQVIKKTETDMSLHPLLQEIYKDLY
T2 sequence (P19793 228-462 partner limits assumed): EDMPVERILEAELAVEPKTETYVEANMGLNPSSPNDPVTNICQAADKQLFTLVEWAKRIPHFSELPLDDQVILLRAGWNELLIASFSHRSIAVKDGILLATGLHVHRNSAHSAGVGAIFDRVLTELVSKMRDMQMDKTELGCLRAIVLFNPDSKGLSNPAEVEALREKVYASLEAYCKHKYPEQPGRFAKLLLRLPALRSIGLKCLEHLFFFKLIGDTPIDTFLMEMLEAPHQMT
As to the kind of experiment: PPARγ-MED1 blockade assay (TR-FRET, biotinylated MED1 LxxLL peptide). Conditions: for Emax: 3 h, maximal extent, GW9662 defined as 100%, DMSO 0%, read-out: % MED1 blockade relative to GW9662; for EC50: TR-FRET, 80 nM Rosiglitazone, 3 hours incubation. It counts as binding. On the procedure:
PPARγ-MED1 Blockade Assay:
Compound potency (ICs) and maximal extent of MED1 repulsion to PPARG were assessed a TR-FRET binding assay measuring association of a biotinylated MED1 LxxLL peptide (Biotin-[…]-amide) to PPARG/RXRA LBD heterodimer. Specifically, a 20 microliters of TR-FRET master mix consisting of 2 nM WT PPARG LBD (E. coli expressed, His-TEV-Q203-Y477; Uniprot ID P37231-2), 2 nM WT RXRA LBD (E. coli expressed, Flag-TEV-E228-T462; […]. Mixtures were incubated for 3 hours and read in an EnVision plate reader (Perkin Elmer) with […]. To determine the potency (ICso) and extent of MED1 repulsion. TR-FRET ratios were normalized to the average ratio of DMSO control wells (0%) and to the average minimum ratio for positive control compound (GW9662 (2-chloro-5-nitrobenzanilide); defined as 100%/6) in CDD Vault and analyzed using the Levenberg-Marquardt algorithm.

Test [3] concerns ANGPTL4, a PPARG target gene, in HT1197 (RXRA S427F mutation) cells. As to the kind of experiment: Bladder cancer pharmacodynamic assay, HT1197 cell assay (quantitative PCR of PPARG target genes). To be noted: Homo sapiens; for inhibition at 0.1 µM: 100 nM compound, 24 hours, percentage of a DMSO control; for EC50: 24 hours treatment, qPCR. It counts as cell-based. On the procedure:
Bladder Cancer Pharmacodynamic Assay
5637 (PPARG amplified) and HT1197 (RXRA S427F mutation) cells were used for assessment of modulation of PPARG target genes using quantitative PCR. Cells were treated for 24 hours with PPARG inverse agonists prior to analysis of FABP4 (IDT, Cat: Hs.PT 58.20106818) and ANGPTL4 (IDT, Cat: Hs.PT 58.25480012) expression, with expression of the housekeeping gene TBP (IDT, Cat: Hs.PT 58v.39858774) used to normalize expression across samples. Quantitative PCR was performed using an ABI QuantStudio 7 Flex Reaction system. Data were analyzed and reported relative to DMSO control using the comparative Ct method (ΔΔCt).
For orientation: In qPCR the cycle at which signal appears reflects the starting amount.

Bounds are passed on as bounds.

The term EC50 denotes the concentration at which the effect is half-maximal. The inhibition is the percentage by which the read-out fell short of the control. A high value points to strong suppression. `CS(=N)(=O)c1ccc(C#N)cc1-c1cc(=O)c2c(F)cc(F)cc2[nH]1` (centres unmarked) [Example 8, 3-(5,7-difluoro-4-oxo-1,4-dihydroquinolin-2-yl)-4-(S-methylsulfonimidoyl)benzonitrile]: in test [1], the Emax was greater than 100% and the EC50 lay within 100 to 1000 nM. In addition, in test [2], the Emax was greater than 100% and the EC50 was 100 to 1000 nM. This compound also came in with an inhibition at 0.1 µM in test [3] of 84%.
As to `CSc1ccc(C#N)cc1-c1cc(=O)c2c(F)cc(F)cc2[nH]1` [Example 6, 3-(5,7-difluoro-4-oxo-1,4-dihydroquinolin-2-yl)-4-(methylthio)benzonitrile], the EC50 in test [1] and in test [2] was greater than 10000 nM throughout. This compound yielded an inhibition at 0.1 µM in test [3] of 17%.
Regarding `N#Cc1ccc(S(=O)(=O)CC(F)(F)F)c(-c2cc(=O)c3c(F)cc(F)cc3[nH]2)c1` [Example 4, 3-(5,7-difluoro-4-oxo-1,4-dihydroquinolin-2-yl)-4-((2,2,2-trifluoroethyl)sulfonyl)-benzonitrile], the Emax in test [1] and in test [2] was greater than 100% throughout. The EC50 in test [1] and in test [2] was 100 to 1000 nM throughout. In test [3], this compound displayed an inhibition at 0.1 µM of 14%.
For `CC(C)S(=O)(=O)c1ccc(C#N)cc1-c1cc(=O)c2c(F)cc(F)cc2[nH]1` [Example 12, 3-(5,7-difluoro-4-oxo-1,4-dihydroquinolin-2-yl)-4-(isopropylsulfonyl)benzonitrile], in test [1], the Emax was less than 100% and the EC50 is greater than 10000 nM. In addition, in test [2], the Emax is less than 100% and the EC50 is greater than 10000 nM. For the same compound, in test [3], 0.1 µM produced 67% inhibition.
As to `Cn1cc(-c2c(F)cc3[nH]c(-c4cc(C#N)ccc4S(C)(=O)=O)cc(=O)c3c2F)cn1` [Example 14], the Emax in test [1] and in test [2] was greater than 100% throughout. For the same compound, the EC50 in test [1] and in test [2] was 10 to 100 nM throughout. In test [3], this compound had an inhibition at 0.1 µM of 89%.
With `C[S+]([O-])c1ccc(C#N)cc1-c1cc(=O)c2c(F)cc(F)cc2[nH]1` (centres unmarked) [Example 7, 3-(5,7-difluoro-4-oxo-1,4-dihydroquinolin-2-yl)-4-(methylsulfinyl)benzonitrile], the Emax in test [1] and in test [2] was greater than 100% each time. Further, the figures for the EC50 in test [1] and in test [2] were 1000 to 10000 nM and greater than 10000 nM, respectively. The compound also showed an inhibition at 0.1 µM in test [3] of 26%.
As to `CS(=O)(=O)c1ccc(C#N)cc1-c1cc(=O)c2ccc(Cl)cc2[nH]1` [Example 9, 3-(7-chloro-4-oxo-1,4-dihydroquinolin-2-yl)-4-(methylsulfonyl)benzonitrile], in test [1], the Emax is greater than 100% and the EC50 lay within 10 to 100 nM. For the same compound, in test [2], the Emax is greater than 100% and the EC50 is 10 to 100 nM. Besides, in test [3], 0.1 µM produced 85% inhibition and the EC50 turned out to be 0.9 nM.
Regarding `CS(=O)(=O)c1ccc(C#N)cc1-c1cc(=O)c2c(F)cc(Cl)cc2[nH]1` [Example 10], in test [1], the Emax was greater than 100% and the EC50 lay within 10 to 100 nM. In test [2], the Emax was greater than 100% and the EC50 fell in the range of 10 to 100 nM. For the same compound, in test [3], 0.1 µM produced 89% inhibition and the concentration for a half-maximal effect (EC50) is 1.6 nM.
On to `N#Cc1ccc(S(=O)(=O)C(F)(F)F)c(-c2cc(=O)c3c(F)cc(F)cc3[nH]2)c1` [Example 11], for which, in test [1], the Emax is greater than 100% and the EC50 was less than 10 nM. Also, in test [2], the Emax is greater than 100% and the EC50 is less than 10 nM. In test [3], this compound returned an inhibition at 0.1 µM of 88% and a 50% effective concentration (EC50) of 0.07 nM.
For `CC(C)CS(=O)(=O)c1ccc(C#N)cc1-c1cc(=O)c2c(F)cc(F)cc2[nH]1` [Example 13, 3-5,7-difluoro-4-oxo-1,4-dihydroquinolin-2-yl-4-(isobutylsulfonyl)benzonitrile], in test [1], the Emax is less than 100% and the EC50 is 1000 to 10000 nM. In test [2], the Emax is less than 100% and the EC50 lay within 1000 to 10000 nM. Moreover, the inhibition at 0.1 µM in test [3] was found to be 77%.
As for `N#Cc1ccc([S+]([O-])CC(F)(F)F)c(-c2cc(=O)c3c(F)cc(F)cc3[nH]2)c1` (centres unmarked) [Example 5], the Emax in test [1] and in test [2] was greater than 100% each time. Moreover, the EC50 in test [1] and in test [2] was 1000 to 10000 nM in each case. The compound also yielded an inhibition at 0.1 µM in test [3] of 15%.
Turning to `CCS(=O)(=O)c1ccc(C#N)cc1-c1cc(=O)c2c(F)cc(F)cc2[nH]1` [Example 2, 3-(5,7-difluoro-4-oxo-1,4-dihydroquinolin-2-yl)-4-(ethylsulfonyl)-benzonitrile], in test [1], the Emax was greater than 100% and the EC50 fell in the range of 100 to 1000 nM. In test [2], the Emax is greater than 100% and the EC50 was in the range of 100 to 1000 nM. The same compound came in with an inhibition at 0.1 µM in test [3] of 86%.
As to `CN1CCN(c2c(F)cc3[nH]c(-c4cc(C#N)ccc4S(C)(=O)=O)cc(=O)c3c2F)CC1` [Example 3, 3-(5,7-difluoro-6-(4-methylpiperazin-1-yl)-4-oxo-1,4-dihydroquinolin-2-yl)-4-(methylsulfonyl)-benzonitrile], in test [1], the Emax was greater than 100% and the EC50 lay in the range of 100 to 1000 nM. In test [2], the Emax is greater than 100% and the EC50 fell in the range of 100 to 1000 nM. This compound returned an inhibition at 0.1 µM in test [3] of 66%.
`CS(=O)(=O)c1ccc(C#N)cc1-c1cc(=O)c2c(F)cc(F)cc2[nH]1` [Example 1, 3-(5,7-difluoro-4-oxo-1,4-dihydroquinolin-2-yl)-4-(methylsulfonyl)benzonitrile]: the Emax in test [1] and in test [2] was greater than 100% each time. Also, the concentration for a half-maximal effect (EC50) in test [1] is 100 to 1000 nM; in test [2] it was 100 to 1000 nM; in test [3], 1.3 nM. Further, the inhibition at 0.1 µM in test [3] is 88%.
Consider `Cc1ccc(-c2c(F)cc3[nH]c(-c4cc(C#N)ccc4S(C)(=O)=O)cc(=O)c3c2F)cn1` [Example 15, 3-(5,7-difluoro-6-(6-methylpyridin-3-yl)-4-oxo-1,4-dihydroquinolin-2-yl)-4-(methylsulfonyl)benzonitrile], for which the Emax in test [1] and in test [2] was greater than 100% throughout. The EC50 in test [1] and in test [2] was 10 to 100 nM each time. This compound also registered an inhibition at 0.1 µM in test [3] of 68%.
